Measurements reported in patent US6686385B2, “Anhydro sugar derivatives of indolocarbazoles” (Bristol-Myers Squibb Company, priority 2000, dated 2004).

Assays:
[1] = tested on: murine P388 cell line; assay: In vitro cell-based cytotoxicity / proliferation inhibition (XTT assay); settings: Mus musculus, 72 hrs incubation, absorbance at 450 nm
Description: The proliferation inhibition activity against murine P388 cell line was measured as follow. […] The cells were incubated at 37° C. for 72 hrs at which time the tetrazolium dye, XTT, containing phenazine methosulfate was added. A dehydrogenase enzyme in live cells reduoes the XTT to a form that absorbs light at 450 nm which can be quantitated spectrophotometrically. The greater the absorbance the greater the number of live cells. The results are expressed as an IC50 which is the drug concentration required to inhibit cell proliferation (i.e. absorbance at 450 nm) to 50% of that of untreated control cells.

[2] = molecular target: T1, human topoisomerase I (Homo sapiens, UniProt P11387); assay: Topoisomerase I activity (in vitro): compound-induced, topoisomerase I-mediated single strand breaks in PM2 DNA; assay type: biochemical; settings: purified human topoisomerase I (Topogen), 30 minutes at 37° C., median effective concentration for inducing single strand breaks, read-out: TOPO I EC50
T1 construct: purchased Topogen
T1 sequence (P11387 1-765): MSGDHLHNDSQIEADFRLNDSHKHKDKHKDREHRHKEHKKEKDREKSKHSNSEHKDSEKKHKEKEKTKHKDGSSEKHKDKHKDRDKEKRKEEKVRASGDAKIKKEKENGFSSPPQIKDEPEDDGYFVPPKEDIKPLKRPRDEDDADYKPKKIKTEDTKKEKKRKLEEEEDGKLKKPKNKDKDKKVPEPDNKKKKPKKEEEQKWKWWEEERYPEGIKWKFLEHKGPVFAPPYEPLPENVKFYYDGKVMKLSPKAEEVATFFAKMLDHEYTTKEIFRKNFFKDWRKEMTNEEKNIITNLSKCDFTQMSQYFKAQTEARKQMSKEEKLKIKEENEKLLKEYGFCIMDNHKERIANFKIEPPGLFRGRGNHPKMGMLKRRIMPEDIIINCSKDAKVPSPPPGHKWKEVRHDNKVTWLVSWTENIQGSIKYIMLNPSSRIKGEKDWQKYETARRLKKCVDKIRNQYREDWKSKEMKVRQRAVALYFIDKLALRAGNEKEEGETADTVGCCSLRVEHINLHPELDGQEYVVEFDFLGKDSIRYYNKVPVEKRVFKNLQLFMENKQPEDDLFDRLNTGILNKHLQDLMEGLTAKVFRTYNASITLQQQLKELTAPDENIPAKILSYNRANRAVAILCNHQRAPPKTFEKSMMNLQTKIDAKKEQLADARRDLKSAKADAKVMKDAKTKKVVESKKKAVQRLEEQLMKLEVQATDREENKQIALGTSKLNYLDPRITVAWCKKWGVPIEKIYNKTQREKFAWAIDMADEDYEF
Description: Topoisomerase I activity was measured as described below: The procedure for assaying compound-induced, topoisomerase I-mediated single strand breaks in DNA was essentially that described by Hsiang, et al., (J. Biol. Chem. 1985, 260,14873-14878). Samples dissolved in 100% DMSO as either […] or 10 mg/ml solutions, unless otherwise stated, were diluted in Tris-EDTA buffer. Marine bacteriophage PM2 DNA (Boehringer Mannheim) was also diluted in Tris-EDTA buffer to a concentration of 0.02 μg/μl. Different dilutions of compound being evaluated were mixed with diluted DNA and this mixture was added to 1000 unit (one unit of enzyme activity is defined as the amount capable of relaxing 100 ng of supercoiled DNA in approximately 30 minutes at 37° C.) aliquots of purified human topoisomerase I (Topogen) in 2×reaction buffer to start the reaction. The compound—DNA—enzyme mixture was incubated for 30 minutes at 37° C. before stopping the reaction with warm stop buffer containing sodium dodecyl sulfate and proteinase K (Sigma). These mixtures were allowed to incubate at 37° C. for another 10 minutes, at which time the mixtures were removed from the waterbath and extracted with a 24:1 mixture of chloroform/isoamyl alcohol. Following centrifugation, aliquots of the aqueous phases were placed in wells of a 0.9% agarose (SeaKem) gel in Tris-borate buffer containing 0.5 μg/ml of ethidium bromide and subjected to electrophbresis for 15 hours to separate the different topological isomers and nicked and broken DNAs. After destaining the gel in water, the ethidium bromide stained DNA reaction products were visualized by exposing the gel to UV irradiation. Negatives of photographs of the irradiated gels were scanned with a densitometer and areas under the peaks were calculated in order to obtain percent-single strand DNA break formation for each sample. A median effective concentration(EC50) was obtained for each compound by interpolation between points of the resulting dose-effect curve which defines the potency of the compound for its effect in inducing topoisomerase I-mediated single strand breaks in DNA.

Row | Compound | EC50 [2] [nM] | melting point [°C] | IC50 [1] [nM]
1 | O=C1NC(=O)c2c1c1c3cc(F)c(F)cc3[nH]c1c1c2c2cc(F)c(F)cc2n1[C@@H]1O[C@@H]2CO[C@H]([C@H]1O)C2(F)F [Example 17, 2,3,9,10-Tetrafluoro-12-(3,6-anhydro-4-deoxy-4,4-difluoro-β-D-glucopyranosyl)-6,7,12,13-tetrahydro(5H)indolo[2,3-a]pyrrolo[3,4-c]carbazole-5,7-dione] | 15000 |  | 240
2 | O=C1NC(=O)c2c1c1c3cc(F)ccc3sc1c1c2c2cc(F)ccc2n1[C@H]1O[C@@H]2CO[C@H]([C@H]1O)[C@@H]2O [Example 13, 3,9-Difluoro-13-(3,6-anhydro-α-D-glucopyranosyl)-5H,13H-benzo[β]thienyl[2,3-a]pyrrolo[3,4-c]carbazole-5,7(6H)-dione] | 110 | > 305 | 23.2
3 | O=C1NC(=O)c2c1c1c3ccc(F)cc3[nH]c1c1c2c2ccc(F)cc2n1[C@@H]1O[C@H](CO)[C@H]2O[C@H]2[C@H]1O [Example 12] | 580 | > 300 | 107
4 | NN1C(=O)c2c(c3c4cc(F)ccc4n([C@@H]4OC5COC([C@@H]5O)[C@H]4O)c3c3[nH]c4ccc(F)cc4c23)C1=O (stereo partly drawn) [Example 4, 3,9-Difluoro-12,13-dihydro-13-[(3,6-anhydro)-β-D-glucopyranosyl]-5H-indolo[2,3-a]pyrrolo[3,4-c]carbazole-5,7(6-N-amino)-dione] | 10 |  | < 3
5 | O=C1NC(=O)c2c1c1c3cc(F)c(F)cc3[nH]c1c1c2c2cc(F)c(F)cc2n1[C@@H]1O[C@@H]2CO[C@@H](C2)[C@H]1O [Example 16, 2,3,9,10-Tetrafluoro-12-(3,6-anhydro-4-deoxy-β-D-glucopyranosyl)-6,7,12,13-tetrahydro(5H)indolo[2,3-a]pyrrolo[3,4-c]carbazole-5,7-dione] |  |  | 310
6 | O=C1c2c(c3c4cc(F)ccc4n(C4O[C@H]5[C@H](OC[C@H]5O)[C@H]4O)c3c3[nH]c4ccc(F)cc4c23)C(=O)N1O (stereo partly drawn) [Example 6, 3,9-Difluoro-12,13-dihydro-13-[(2,6-dihydroxy)-(4,8-dioxa)-bicyclo[3.3.0]oct-3-yl]-5H-indolo[2,3-a]pyrrolo[3,4-c]carbazole-5,7(6-N-hydroxyl)-dione] | 10 |  | 14.1

Continued, in another order:

Row | EC50 [2] [nM] | melting point [°C] | Compound | IC50 [1] [nM]
7 | 580 |  | O=C1NC(=O)c2c1c1c3cc(F)ccc3[nH]c1c1c2c2cc(F)ccc2n1C1O[C@H](CF)[C@@H](F)[C@H]2O[C@@H]12 (stereo partly drawn) [Example 7, 3,9-Difluoro-12,13-dihydro-13-[(2,3-anhydro)-(4,6-difluoro)-β-D-glucopyranosyl]-5H-indolo[2,3-a]pyrrolo[3,4-c]carbazole-5,7(6H)-dione] | 493
8 | 18 |  | O=C1NC(=O)c2c1c1c3cc(F)ccc3[nH]c1c1c2c2cc(F)ccc2n1C1O[C@H](CO)[C@H]2O[C@H]2[C@H]1O (stereo partly drawn) [Example 8, 3,9-Difluoro-12,13-dihydro-13-[(3,4-anhydro)-β-D-glucopyranosyl]-5H-indolo[2,3-a]pyrrolo[3,4-c]carbazole-5,7(6H)-dione] | 5.3
9 | 180 |  | O=C1NC(=O)c2c1c1c3cc(F)ccc3[nH]c1c1c2c2cc(F)ccc2n1[C@@H]1O[C@@H]2CO[C@H]([C@H]1O)[C@H]2O [Example 18, 3,9-Difluoro-12,13-dihydro-13-[(3,6-anhydro)-β-D-galactopyranosyl]-5H-indolo[2,3-a]pyrrolo[3,4-c]carbazole-5,7(6H)-dione] | 123
10 | 130 |  | O=C1NC(=O)c2c1c1c3cc(F)ccc3[nH]c1c1c2c2cc(F)ccc2n1[C@@H]1OC2COC(C2)C1O (stereo partly drawn) [Example 11, 3,9-Difluoro-12,13-dihydro-13-[(3,6-anhydro-4-deoxy)-β-D-glucopyranosyl]-5H-indolo[2,3-a]pyrrolo[3,4-c]carbazole-5,7(6H)-dione] | 70
11 | 85 |  | O=C1NC(=O)c2c1c1c3cc(F)ccc3[nH]c1c1c2c2cc(F)ccc2n1[C@@H]1OC2COC(C2O)C1O (stereo partly drawn) [Example 1, 3,9-Difluoro-12,13-dihydro-13-[(3,6-anhydro)-β-D-glucopyranosyl]-5H-indolo[2,3-a]pyrrolo[3,4-c]carbazole-5,7(6H)-dione] | 93
12 | 14 |  | O=C1c2c(c3c4cc(F)ccc4n([C@@H]4OC5COC([C@@H]5O)[C@H]4O)c3c3[nH]c4ccc(F)cc4c23)C(=O)N1O (stereo partly drawn) [Example 3, 3,9-Difluoro-12,13-dihydro-13-[(3,6-anhydro)-β-D-glucopyranosyl]-5H-indolo[2,3-a]pyrrolo[3,4-c]carbazole-5,7(6-N-hydroxyl)-dione] | 14.6
13 | 5500 | > 300 | O=C1NC(=O)c2c1c1c3ccc(F)cc3[nH]c1c1c2c2ccc(F)cc2n1[C@@H]1O[C@@H]2CO[C@H]([C@H]1O)[C@@H]2O [Example 14, 12-(3,6-Anhydro-β-D-glucopyranosyl)-2,10-difluoro-12,13-dihydro-5H-indolo[2,3-a]pyrrolo[3,4-c]carbazole-5,7(6H)-dione] | 6220
14 | 360 |  | O=C1NC(=O)c2c1c1c3cc(F)ccc3[nH]c1c1c2c2cc(F)ccc2n1[C@H]1OC2COC([C@@H]2O)[C@H]1O (stereo partly drawn) [Example 2, 3,9-Difluoro-12,13-dihydro-13-[(3,6-anhydro)-α-D-glucopyranosyl]-5H-indolo[2,3-a]pyrrolo[3,4-c]carbazole-5,7(6H)-dione] | 38.8
